In patent US12692253B2, “Antimicrobial compounds and methods” (Curza Global, LLC, priority 2019, dated 2026):

Key:
[1] = test system: E. coli S30 extract (bacterial protein synthesis); experiment: E. coli S30 extract coupled transcription-translation luciferase assay (inhibition of bacterial protein synthesis); type: biochemical; conditions: % inhibition @ 1 μM, read-out: S30 IC50 (μM/% inhib.)
Procedure, shortened: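 Coupled transcription-translation in E. coli S30 circular-DNA extract expressing luciferase from pBESTluc, with 8-point 2-fold compound dilutions; 1 hour at 37 °C, stopped at 4 °C. Luminescence read; % inhibition versus no-inhibitor wells, no-DNA wells as background.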

[2] = molecular target: Rabbit Reticulocyte Lysate (eukaryotic protein synthesis); experiment: Rabbit reticulocyte lysate luciferase assay (inhibition of eukaryotic protein synthesis); type: biochemical; conditions: % inhibition @ 1 μM, read-out: Rabbit reticulocyte IC50 (μM/% inhib.)
Procedure, shortened: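 In vitro translation of luciferase control RNA in nuclease-treated rabbit reticulocyte lysate with amino acid mixture, compounds in 2-fold serial dilution, 90 minutes at 30° C. Luminescence read after luciferase reagent; % inhibition relative to water no-inhibitor controls, with no-RNA background wells.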

E. coli (Ec) = experiment: Broth microdilution minimum inhibitory concentration (MIC), CLSI; type: cell-based; conditions: growth medium with sodium bicarbonate; for MIC: Escherichia coli, read-out: E. coli + bicarb MIC
Procedure, shortened: (§1)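 CLSI broth microdilution with modification: 8-point two-fold compound dilutions in CAMHB, CAMHB plus 6.25 or 25 mM sodium bicarbonate, or CAMHB plus 0–50% heat-inactivated human serum. Inoculum 5×10^4 CFU/well from log-phase cultures adjusted to 0.5 McFarland; triplicate wells.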

S. aureus (Sa) = experiment: as above; type: cell-based; conditions: growth medium with sodium bicarbonate; for MIC: Staphylococcus aureus, read-out: Sa + bicarb MIC
Procedure, shortened: as §1

E. faecalis (Ef) = experiment: as above; type: cell-based; conditions: growth medium with sodium bicarbonate; for MIC: Enterococcus faecalis, read-out: Ef + bicarb MIC
Procedure, shortened: as §1

A. baumannn (Ab) = experiment: as above; type: cell-based; conditions: A. baumannn, growth medium with sodium bicarbonate; for MIC: read-out: Ab + bicarb MIC
Procedure, shortened: as §1

P. aeruginosa (Pa) = experiment: as above; type: cell-based; conditions: growth medium with sodium bicarbonate; for MIC: Pseudomonas aeruginosa, read-out: Pa MIC + bicarb
Procedure, shortened: as §1

| SMILES | IC50 [1] | IC50 [2] | MIC (E. coli (Ec)) | MIC (S. aureus (Sa)) | MIC (E. faecalis (Ef)) | MIC (A. baumannn (Ab)) | MIC (P. aeruginosa (Pa)) | E. coli + bicarb MIC (E. coli (Ec)) | Sa + bicarb MIC (S. aureus (Sa)) | Ef + bicarb MIC (E. faecalis (Ef)) | Ab + bicarb MIC (A. baumannn (Ab)) | Pa MIC + bicarb (P. aeruginosa (Pa)) |
| --- | --- | --- | --- | --- | --- | --- | --- | --- | --- | --- | --- | --- |
| CC(Cc1ccc(-n2ccc(NC(=O)N3CCN(C(=O)[C@@H]4CCCN4)CC3)nc2=O)cc1)N1C[C@@H]2[C@@H](CN)[C@@H]2C1 (some centres unmarked) [Compound 228] | ≥ 1 µM | ≥ 1 µM | < 8 µg/mL | < 8 µg/mL | 8 to 32 µg/mL | > 32 µg/mL | > 32 µg/mL | – | – | – | – | – |
| CC(Cc1ccc(-n2ccc(NC(=O)N3CCN(C(=O)C4(N)CCC4)CC3)nc2=O)cc1)N1C[C@@H]2[C@@H](CN)[C@@H]2C1 (some centres unmarked) [Compound 229] | ≥ 1 µM | ≥ 1 µM | 8 to 32 µg/mL | > 32 µg/mL | > 32 µg/mL | > 32 µg/mL | > 32 µg/mL | – | – | – | – | – |
| CC(C)[C@@H](N)C(=O)N1CCN(C(=O)Nc2ccn(-c3ccc(CC(C)N4C[C@@H]5[C@@H](CN)[C@@H]5C4)cc3)c(=O)n2)CC1 (some centres unmarked) [Compound 230] | ≥ 1 µM | ≥ 1 µM | < 8 µg/mL | 8 to 32 µg/mL | > 32 µg/mL | > 32 µg/mL | > 32 µg/mL | – | – | – | – | – |
| CC(Cc1ccc(-n2ccc(NC(=O)N3CCN(C(=O)C[C@H](C)N)CC3)nc2=O)cc1)N1C[C@@H]2[C@@H](CN)[C@@H]2C1 (some centres unmarked) [Compound 231] | ≥ 1 µM | ≥ 1 µM | < 8 µg/mL | < 8 µg/mL | > 32 µg/mL | > 32 µg/mL | > 32 µg/mL | – | – | – | – | – |
| CC(Cc1ccc(-n2ccc(NC(=O)N3CCN(C(=O)[C@H]4C[C@@H](N)C4)CC3)nc2=O)cc1)N1C[C@@H]2[C@@H](CN)[C@@H]2C1 (some centres unmarked) [Compound 232] | ≥ 1 µM | ≥ 1 µM | < 8 µg/mL | < 8 µg/mL | > 32 µg/mL | > 32 µg/mL | > 32 µg/mL | – | – | – | – | – |
| CC(Cc1ccc(-n2ccc(NC(=O)N3CCN(C(=O)C(C)(C)CN)CC3)nc2=O)cc1)N1C[C@@H]2[C@@H](CN)[C@@H]2C1 (some centres unmarked) [Compound 233] | ≥ 1 µM | ≥ 1 µM | < 8 µg/mL | < 8 µg/mL | 8 to 32 µg/mL | > 32 µg/mL | > 32 µg/mL | – | – | – | – | – |
| CC(Cc1ccc(-n2ccc(NC(=O)N3CCN(C(=O)[C@H]4C[C@H](N)C4)CC3)nc2=O)cc1)N1C[C@@H]2[C@@H](CN)[C@@H]2C1 (some centres unmarked) [Compound 234] | ≥ 1 µM | ≥ 1 µM | < 8 µg/mL | < 8 µg/mL | > 32 µg/mL | > 32 µg/mL | > 32 µg/mL | – | – | – | – | – |
| CC(C)[C@@H](N)CC(=O)N1CCN(C(=O)Nc2ccn(-c3ccc(CC(C)N4C[C@@H]5[C@@H](CN)[C@@H]5C4)cc3)c(=O)n2)CC1 (some centres unmarked) [Compound 235] | ≥ 1 µM | ≥ 1 µM | < 8 µg/mL | < 8 µg/mL | > 32 µg/mL | > 32 µg/mL | > 32 µg/mL | – | – | – | – | – |
| CNCC(=O)N1CCN(C(=O)Nc2ccn(-c3ccc(CC(C)N4C[C@@H]5[C@@H](CN)[C@@H]5C4)cc3)c(=O)n2)CC1 (some centres unmarked) [Compound 236] | ≥ 1 µM | ≥ 1 µM | < 8 µg/mL | 8 to 32 µg/mL | > 32 µg/mL | > 32 µg/mL | > 32 µg/mL | – | – | – | – | – |
| CC(Cc1ccc(-n2ccc(NC(=O)N3CCN(C(=O)C(C)(C)N)CC3)nc2=O)cc1)N1CCC2(CC1)CC2CN (centres unmarked) [Compound 237] | ≥ 1 µM | ≥ 1 µM | < 8 µg/mL | > 32 µg/mL | > 32 µg/mL | > 32 µg/mL | > 32 µg/mL | – | – | – | – | – |
| CC(Cc1ccc(-n2ccc(NC(=O)N3CCN(C(=O)C(C)(C)N)CC3)nc2=O)cc1)N1CCC2(CC(N)C2)C1 (centres unmarked) [Compound 238] | 0.5 to 1 µM | ≥ 1 µM | – | – | – | – | – | +++ (An MIC value (μg/mL) that is less than 8 μg/mL) | ++ (An MIC value (μg/mL) that is 8 μg/mL or greater and less than 32 μg/mL) | + (An MIC (μg/mL) value that is 32 μg/mL or greater) | + (An MIC (μg/mL) value that is 32 μg/mL or greater) | + (An MIC (μg/mL) value that is 32 μg/mL or greater) |
| CC(Cc1ccc(-n2ccc(NC(=O)N3CCN(C(=O)C(N)CCCN)CC3)nc2=O)cc1)N1C[C@@H]2[C@@H](CN)[C@@H]2C1 (some centres unmarked) [Compound 239] | < 0.5 µM | ≥ 1 µM | < 8 µg/mL | 8 to 32 µg/mL | > 32 µg/mL | > 32 µg/mL | > 32 µg/mL | – | – | – | – | – |
| CC(Cc1ccc(-n2ccc(NC(=O)N3CCN(C(=O)[C@@H](N)CCCCN)CC3)nc2=O)cc1)N1C[C@@H]2[C@@H](CN)[C@@H]2C1 (some centres unmarked) [Compound 240] | < 0.5 µM | ≥ 1 µM | < 8 µg/mL | 8 to 32 µg/mL | > 32 µg/mL | > 32 µg/mL | > 32 µg/mL | – | – | – | – | – |
| CC(Cc1ccc(-n2ccc(NC(=O)N3CCN(C(=O)C(C)(C)NCS(=O)(=O)O)CC3)nc2=O)cc1)N1C[C@@H]2[C@@H](CNCS(=O)(=O)O)[C@@H]2C1 (some centres unmarked) [Compound 241] | < 0.5 µM | ≥ 1 µM | < 8 µg/mL | < 8 µg/mL | 8 to 32 µg/mL | > 32 µg/mL | > 32 µg/mL | – | – | – | – | – |
| CC(Cc1ccc(-n2ccc(NC(=O)N3CCN(C(=O)C(C)(C)N)CC3)nc2=O)cc1)N1CC2CCC(N)CC2C1 (centres unmarked) [Compound 242] | 0.5 to 1 µM | ≥ 1 µM | – | – | – | – | – | +++ (An MIC value (μg/mL) that is less than 8 μg/mL) | ++ (An MIC value (μg/mL) that is 8 μg/mL or greater and less than 32 μg/mL) | + (An MIC (μg/mL) value that is 32 μg/mL or greater) | + (An MIC (μg/mL) value that is 32 μg/mL or greater) | + (An MIC (μg/mL) value that is 32 μg/mL or greater) |
| CC(Cc1ccc(-n2ccc(NC(=O)N3CCN(C(=O)C(C)(C)N)CC3)nc2=O)cc1)N1CC2CCC(N)CC2C1 (centres unmarked) [Compound 243] | 0.5 to 1 µM | ≥ 1 µM | – | – | – | – | – | +++ (An MIC value (μg/mL) that is less than 8 μg/mL) | ++ (An MIC value (μg/mL) that is 8 μg/mL or greater and less than 32 μg/mL) | + (An MIC (μg/mL) value that is 32 μg/mL or greater) | + (An MIC (μg/mL) value that is 32 μg/mL or greater) | + (An MIC (μg/mL) value that is 32 μg/mL or greater) |
| CCC(Cc1ccc(-n2ccc(NC(=O)N3CCN(C(=O)C(C)(C)N)CC3)nc2=O)cc1)N1CC2CCC(N)CC2C1 (centres unmarked) [Compound 244] | 0.5 to 1 µM | ≥ 1 µM | – | – | – | – | – | +++ (An MIC value (μg/mL) that is less than 8 μg/mL) | +++ (An MIC value (μg/mL) that is less than 8 μg/mL) | ++ (An MIC value (μg/mL) that is 8 μg/mL or greater and less than 32 μg/mL) | + (An MIC (μg/mL) value that is 32 μg/mL or greater) | + (An MIC (μg/mL) value that is 32 μg/mL or greater) |
| CCC(Cc1ccc(-n2ccc(NC(=O)N3CCN(C(=O)C(C)(C)N)CC3)nc2=O)cc1)N1CC2CCC(N)CC2C1 (centres unmarked) [Compound 245] | 0.5 to 1 µM | ≥ 1 µM | – | – | – | – | – | +++ (An MIC value (μg/mL) that is less than 8 μg/mL) | ++ (An MIC value (μg/mL) that is 8 μg/mL or greater and less than 32 μg/mL) | + (An MIC (μg/mL) value that is 32 μg/mL or greater) | + (An MIC (μg/mL) value that is 32 μg/mL or greater) | + (An MIC (μg/mL) value that is 32 μg/mL or greater) |
| CC(C)(N)C(=O)N1C[C@H]2CN(C(=O)Nc3ccn(-c4ccc(CN5C[C@@H]6[C@@H](N)[C@@H]6C5)cc4)c(=O)n3)C[C@H]2C1 [Compound 246] | ≥ 1 µM | ≥ 1 µM | > 32 µg/mL | > 32 µg/mL | > 32 µg/mL | > 32 µg/mL | > 32 µg/mL | – | – | – | – | – |
| NC[C@@H]1[C@H]2CN(C(=O)Nc3ccn(-c4ccc(CN5C[C@@H]6[C@@H](N)[C@@H]6C5)cc4)c(=O)n3)C[C@@H]12 [Compound 247] | ≥ 1 µM | ≥ 1 µM | > 32 µg/mL | > 32 µg/mL | > 32 µg/mL | > 32 µg/mL | > 32 µg/mL | – | – | – | – | – |
| NCC1CCN(C(=O)Nc2ccn(-c3ccc(CN4C[C@@H]5[C@@H](N)[C@@H]5C4)cc3)c(=O)n2)CC1 [Compound 248] | ≥ 1 µM | ≥ 1 µM | > 32 µg/mL | > 32 µg/mL | > 32 µg/mL | > 32 µg/mL | > 32 µg/mL | – | – | – | – | – |
| N[C@@H]1[C@H]2CN(Cc3ccc(-n4ccc(NC(=O)N5C[C@@H]6[C@@H](N)[C@@H]6C5)nc4=O)cc3)C[C@@H]12 [Compound 249] | ≥ 1 µM | ≥ 1 µM | 8 to 32 µg/mL | > 32 µg/mL | > 32 µg/mL | > 32 µg/mL | > 32 µg/mL | – | – | – | – | – |
| NCCC1CCN(C(=O)Nc2ccn(-c3ccc(CN4C[C@@H]5[C@@H](N)[C@@H]5C4)cc3)c(=O)n2)CC1 [Compound 250] | ≥ 1 µM | ≥ 1 µM | > 32 µg/mL | > 32 µg/mL | > 32 µg/mL | > 32 µg/mL | > 32 µg/mL | – | – | – | – | – |
